Data as given in patent US20230346827A1 (priority 2020, published 2023).

Test system: rats subjected to sTBI
Test: sTBI rats, LMW-DS 1, 5, 15 mg/kg s.c. 30 min post-TBI: HPLC of brain free amino acids (Example 4)
Format: in vivo, rat
Conditions: for HYS concentration in deproteinized brain homogenate / ILE concentration in deproteinized brain homogenate / LEU concentration in deproteinized brain homogenate / LYS concentration in deproteinized brain homogenate / PHE concentration in deproteinized brain homogenate / TAU concentration in deproteinized brain homogenate / TRP concentration in deproteinized brain homogenate / TYR concentration in deproteinized brain homogenate / VAL concentration in deproteinized brain homogenate: rats 7 days post-sTBI, mean ± S.D. of 12 animals
[1] = 15 mg/kg repeated, 7 d post-sTBI
[2] = repeated administration of 15 mg/kg b.w.
[3] = single administration 1 mg/kg b.w.
[4] = single administration 5 mg/kg b.w.
[5] = single administration 15 mg/kg b.w.

sodium salt of dextran sulfate [LMW-DS]
GLN [1]: 3.88 ± 0.40 nmol/g w.w.
GLU [1]: 10.78 ± 0.91 nmol/g w.w.
GLY [1]: 0.78 ± 0.10 nmol/g w.w.
L-Cystat [1]: 0.44 ± 0.07 nmol/g w.w.
MET [1]: 0.05 ± 0.01 nmol/g w.w.
ORN [1]: 0.02 ± 0.01 nmol/g w.w.
SAH [1]: 0.04 ± 0.04 nmol/g w.w.
SER [1]: 0.79 ± 0.13 nmol/g w.w.
THR [1]: 0.77 ± 0.14 nmol/g w.w.
ALA (15 mg/kg, 2 d post-sTBI): 0.68 ± 0.07 nmol/g w.w.
ARG (15 mg/kg, 2 d post-sTBI): 0.16 ± 0.04 nmol/g w.w.
ASN (15 mg/kg, 2 d post-sTBI): 0.17 ± 0.03 nmol/g w.w.
ASP (15 mg/kg, 2 d post-sTBI): 3.05 ± 0.42 nmol/g w.w.
CITR (15 mg/kg, 2 d post-sTBI): 0.01 ± 0.01 nmol/g w.w.
GABA (15 mg/kg, 2 d post-sTBI): 1.58 ± 0.14 µmol/g w.w.
GLN (15 mg/kg, 2 d post-sTBI): 4.21 ± 0.51 nmol/g w.w.
GLU (15 mg/kg, 2 d post-sTBI): 11.79 ± 0.55 nmol/g w.w.
GLY (15 mg/kg, 2 d post-sTBI): 1.18 ± 0.23 nmol/g w.w.
HYS (15 mg/kg, 2 d post-sTBI): 0.10 ± 0.01 nmol/g w.w.
ILE (15 mg/kg, 2 d post-sTBI): 0.06 ± 0.01 nmol/g w.w.
L-Cystat (15 mg/kg, 2 d post-sTBI): 0.41 ± 0.08 nmol/g w.w.
LEU (15 mg/kg, 2 d post-sTBI): 0.04 ± 0.01 nmol/g w.w.
LYS (15 mg/kg, 2 d post-sTBI): 0.32 ± 0.12 nmol/g w.w.
MET (15 mg/kg, 2 d post-sTBI): 0.03 ± 0.01 nmol/g w.w.
ORN (15 mg/kg, 2 d post-sTBI): 0.02 ± 0.01 nmol/g w.w.
PHE (15 mg/kg, 2 d post-sTBI): 0.06 ± 0.01 nmol/g w.w.
SAH (15 mg/kg, 2 d post-sTBI): 0.06 ± 0.02 nmol/g w.w.
SER (15 mg/kg, 2 d post-sTBI): 0.76 ± 0.06 nmol/g w.w.
TAU (15 mg/kg, 2 d post-sTBI): 4.59 ± 0.43 nmol/g w.w.
THR (15 mg/kg, 2 d post-sTBI): 0.61 ± 0.13 nmol/g w.w.
TRP (15 mg/kg, 2 d post-sTBI): 0.04 ± 0.01 nmol/g w.w.
TYR (15 mg/kg, 2 d post-sTBI): 0.17 ± 0.03 nmol/g w.w.
VAL (15 mg/kg, 2 d post-sTBI): 0.06 ± 0.03 nmol/g w.w.
ALA (15 mg/kg, 7 d post-sTBI): 0.38 ± 0.04 nmol/g w.w.
ARG (15 mg/kg, 7 d post-sTBI): 0.14 ± 0.02 nmol/g w.w.
ASN (15 mg/kg, 7 d post-sTBI): 0.10 ± 0.02 nmol/g w.w.
ASP (15 mg/kg, 7 d post-sTBI): 2.29 ± 0.37 nmol/g w.w.
CITR (15 mg/kg, 7 d post-sTBI): 0.03 ± 0.01 nmol/g w.w.
GABA (15 mg/kg, 7 d post-sTBI): 1.43 ± 0.15 µmol/g w.w.
GLN (15 mg/kg, 7 d post-sTBI): 3.73 ± 0.38 nmol/g w.w.
GLU (15 mg/kg, 7 d post-sTBI): 10.25 ± 0.86 nmol/g w.w.
GLY (15 mg/kg, 7 d post-sTBI): 0.78 ± 0.12 nmol/g w.w.
L-Cystat (15 mg/kg, 7 d post-sTBI): 0.25 ± 0.04 nmol/g w.w.
MET (15 mg/kg, 7 d post-sTBI): 0.04 ± 0.01 nmol/g w.w.
ORN (15 mg/kg, 7 d post-sTBI): 0.01 ± 0.01 nmol/g w.w.
SAH (15 mg/kg, 7 d post-sTBI): 0.04 ± 0.01 nmol/g w.w.
SER (15 mg/kg, 7 d post-sTBI): 0.76 ± 0.12 nmol/g w.w.
THR (15 mg/kg, 7 d post-sTBI): 0.72 ± 0.14 nmol/g w.w.
HYS concentration in deproteinized brain homogenate [2]: 0.06 ± 0.01 nmol/g w.w.
ILE concentration in deproteinized brain homogenate [2]: 0.03 ± 0.01 nmol/g w.w.
LEU concentration in deproteinized brain homogenate [2]: 0.04 ± 0.01 nmol/g w.w.
LYS concentration in deproteinized brain homogenate [2]: 0.23 ± 0.07 nmol/g w.w.
PHE concentration in deproteinized brain homogenate [2]: 0.05 ± 0.01 nmol/g w.w.
TAU concentration in deproteinized brain homogenate [2]: 3.47 ± 0.44 nmol/g w.w.
TRP concentration in deproteinized brain homogenate [2]: 0.03 ± 0.01 nmol/g w.w.
TYR concentration in deproteinized brain homogenate [2]: 0.14 ± 0.02 nmol/g w.w.
VAL concentration in deproteinized brain homogenate [2]: 0.07 ± 0.01 nmol/g w.w.
HYS concentration in deproteinized brain homogenate [3]: 0.06 ± 0.01 nmol/g w.w.
ILE concentration in deproteinized brain homogenate [3]: 0.04 ± 0.01 nmol/g w.w.
LEU concentration in deproteinized brain homogenate [3]: 0.05 ± 0.01 nmol/g w.w.
LYS concentration in deproteinized brain homogenate [3]: 0.19 ± 0.06 nmol/g w.w.
PHE concentration in deproteinized brain homogenate [3]: 0.05 ± 0.01 nmol/g w.w.
TAU concentration in deproteinized brain homogenate [3]: 4.02 ± 0.51 nmol/g w.w.
TRP concentration in deproteinized brain homogenate [3]: 0.01 ± 0.01 nmol/g w.w.
TYR concentration in deproteinized brain homogenate [3]: 0.13 ± 0.02 nmol/g w.w.
VAL concentration in deproteinized brain homogenate [3]: 0.08 ± 0.01 nmol/g w.w.
HYS concentration in deproteinized brain homogenate [4]: 0.06 ± 0.01 nmol/g w.w.
ILE concentration in deproteinized brain homogenate [4]: 0.05 ± 0.01 nmol/g w.w.
LEU concentration in deproteinized brain homogenate [4]: 0.05 ± 0.01 nmol/g w.w.
LYS concentration in deproteinized brain homogenate [4]: 0.21 ± 0.04 nmol/g w.w.
PHE concentration in deproteinized brain homogenate [4]: 0.06 ± 0.01 nmol/g w.w.
TAU concentration in deproteinized brain homogenate [4]: 3.51 ± 0.44 nmol/g w.w.
TRP concentration in deproteinized brain homogenate [4]: 0.02 ± 0.01 nmol/g w.w.
TYR concentration in deproteinized brain homogenate [4]: 0.13 ± 0.02 nmol/g w.w.
VAL concentration in deproteinized brain homogenate [4]: 0.08 ± 0.01 nmol/g w.w.
HYS concentration in deproteinized brain homogenate [5]: 0.06 ± 0.01 nmol/g w.w.
ILE concentration in deproteinized brain homogenate [5]: 0.07 ± 0.01 nmol/g w.w.
LEU concentration in deproteinized brain homogenate [5]: 0.07 ± 0.01 nmol/g w.w.
LYS concentration in deproteinized brain homogenate [5]: 0.21 ± 0.05 nmol/g w.w.
PHE concentration in deproteinized brain homogenate [5]: 0.07 ± 0.01 nmol/g w.w.
TAU concentration in deproteinized brain homogenate [5]: 3.38 ± 0.44 nmol/g w.w.
TRP concentration in deproteinized brain homogenate [5]: 0.03 ± 0.01 nmol/g w.w.
TYR concentration in deproteinized brain homogenate [5]: 0.14 ± 0.02 nmol/g w.w.
VAL concentration in deproteinized brain homogenate [5]: 0.10 ± 0.01 nmol/g w.w.
